These compounds were tested against influenza A virus minigenome (PB2, PB1, PA, NP proteins) (UniProt P04665). Conditions: read-out: RNP_ Hubei B IC50.
Assay type: cell-based

Sequence of influenza A virus minigenome (PB2, PB1, PA, NP proteins) (P04665 whole entry): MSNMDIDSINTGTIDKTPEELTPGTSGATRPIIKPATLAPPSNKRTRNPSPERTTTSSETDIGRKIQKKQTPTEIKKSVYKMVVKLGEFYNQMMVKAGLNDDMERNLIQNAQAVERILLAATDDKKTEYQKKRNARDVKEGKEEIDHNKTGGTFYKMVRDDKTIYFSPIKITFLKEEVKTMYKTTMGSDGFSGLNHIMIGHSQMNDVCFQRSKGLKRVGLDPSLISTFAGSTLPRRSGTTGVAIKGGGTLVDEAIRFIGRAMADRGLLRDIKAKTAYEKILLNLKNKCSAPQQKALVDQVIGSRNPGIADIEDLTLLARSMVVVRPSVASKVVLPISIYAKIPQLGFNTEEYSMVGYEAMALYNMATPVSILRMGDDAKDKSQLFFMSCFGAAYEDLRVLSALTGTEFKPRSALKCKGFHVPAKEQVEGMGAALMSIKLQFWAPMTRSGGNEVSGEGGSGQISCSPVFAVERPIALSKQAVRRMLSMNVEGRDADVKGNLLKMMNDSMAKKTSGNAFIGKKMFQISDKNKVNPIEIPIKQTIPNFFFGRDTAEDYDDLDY

Q: `NC(=O)c1cc(-c2ccc(OCC3COC(CF)CO3)cc2)c(C(F)(F)F)[nH]c1=O` (single isomer, unassigned) [Example 343, 5-(4-((5-(fluoromethyl)-1,4-dioxan-2-yl)methoxy)phenyl)-2-oxo-6-(trifluoromethyl)-1,2-dihydropyridine-3-carboxamide] was tested. Which IC50 did it give?
A: 5 to 10 µM

Q: Which IC50 does the source give for `NC(=O)c1cc(-c2ccc(OCc3cnc4ccccn34)cc2)c(C(F)(F)F)[nH]c1=O` [Example 286, 5-(4-(imidazo[1,2-a]pyridin-3-ylmethoxy)phenyl)-2-oxo-6-(trifluoromethyl)-1,2-dihydropyridine-3-carboxamide] here?
A: 25 to 50 µM

Q: Which IC50 does the source give for `COC(C)(C)COCC1COCC(COc2ccc(-c3cc(C(N)=O)c(=O)[nH]c3C(F)(F)F)cc2)O1` (single isomer, unassigned) [Example 371, 5-(4-((6-((2-methoxy-2-methylpropoxy)methyl)-1,4-dioxan-2-yl)methoxy)phenyl)-2-oxo-6-(trifluoromethyl)-1,2-dihydropyridine-3-carboxamide] here?
A: 5 to 10 µM

Q: For `CC1(OCC2COCC(COc3ccc(-c4cc(C(N)=O)c(=O)[nH]c4C(F)(F)F)cc3)O2)COC1` (single isomer, unassigned) [Example 379], which IC50 is on record?
A: 5 to 10 µM

Q: For `Cn1ncc2c1COCC2COc1ccc(-c2cc(C(N)=O)c(=O)[nH]c2C(F)(F)F)cc1` (single isomer, unassigned) [Example 290, 5-(4-((1-methyl-1,4,5,7-tetrahydropyrano[3,4-c]pyrazol-4-yl)methoxy)phenyl)-2-oxo-6-(trifluoromethyl)-1,2-dihydropyridine-3-carboxamide], which IC50 is on record?
A: 5 to 10 µM

Q: With `CC1(COc2ccc(-c3cc(C(N)=O)c(=O)[nH]c3C(F)(F)F)cc2)COC1` [Example 227] as the compound, how does the IC50 read?
A: 25 to 50 µM

Q: How did the IC50 turn out when `COC(C)(C)COCC1COCC(COc2ccc(-c3cc(C(N)=O)c(=O)[nH]c3C(F)(F)F)cc2)O1` (single isomer, unassigned) [Example 370, 5-(4-((6-((2-methoxy-2-methylpropoxy)methyl)-1,4-dioxan-2-yl)methoxy)phenyl)-2-oxo-6-(trifluoromethyl)-1,2-dihydropyridine-3-carboxamide] was run?
A: 5 to 10 µM

Q: Which IC50 does the source give for `Cc1ncsc1COc1ccc(-c2cc(C(N)=O)c(=O)[nH]c2C(F)(F)F)cc1` [Example 272, 5-(4-((4-methylthiazol-5-yl)methoxy)phenyl)-2-oxo-6-(trifluoromethyl)-1,2-dihydropyridine-3-carboxamide] here?
A: 25 to 50 µM

Q: For `NC(=O)c1cc(-c2ccc(OC[C@H]3COC[C@H](C4CC4)O3)cc2)c(C(F)(F)F)[nH]c1=O` [Example 327, 5-(4-(((2R,6S)-6-cyclopropyl-1,4-dioxan-2-yl)methoxy)phenyl)-2-oxo-6-(trifluoromethyl)-1,2-dihydropyridine-3-carboxamide], which IC50 is on record?
A: 5 to 10 µM

Q: How did the IC50 turn out when `Cc1nnsc1COc1ccc(-c2cc(C(N)=O)c(=O)[nH]c2C(F)(F)F)cc1` [Example 273, 5-(4-((4-methyl-1,2,3-thiadiazol-5-yl)methoxy)phenyl)-2-oxo-6-(trifluoromethyl)-1,2-dihydropyridine-3-carboxamide] was run?
A: 10 to 25 µM

Q: With `COCC1(COC)COC[C@@H](COc2ccc(-c3cc(C(N)=O)c(=O)[nH]c3C(F)(F)F)cc2)O1` [Example 414, (S)-5-(4-((6,6-bis(methoxymethyl)-1,4-dioxan-2-yl)methoxy)phenyl)-2-oxo-6-(trifluoromethyl)-1,2-dihydropyridine-3-carboxamide] as the compound, how does the IC50 read?
A: 5 to 10 µM

Q: With `CC1(C2COCC(COc3ccc(-c4cc(C(N)=O)c(=O)[nH]c4C(F)(F)F)cc3)O2)CC1` (single isomer, unassigned) [Example 356, 5-(4-((6-(1-methylcyclopropyl)-1,4-dioxan-2-yl)methoxy)phenyl)-2-oxo-6-(trifluoromethyl)-1,2-dihydropyridine-3-carboxamide] as the compound, how does the IC50 read?
A: 5 to 10 µM

Q: How did the IC50 turn out when `CC1(COc2ccc(-c3cc(C(N)=O)c(=O)[nH]c3C(F)(F)F)cc2)COCCOC1` [Example 321, 5-(4-((6-methyl-1,4-dioxepan-6-yl)methoxy)phenyl)-2-oxo-6-(trifluoromethyl)-1,2-dihydropyridine-3-carboxamide] was run?
A: 5 to 10 µM

Q: For `NC(=O)c1cc(-c2ccc(OCC3COCC(F)(F)C3)cc2)c(C(F)(F)F)[nH]c1=O` (single isomer, unassigned) [Example 336, 5-(4-((5,5-difluorotetrahydro-2H-pyran-3-yl)methoxy)phenyl)-2-oxo-6-(trifluoromethyl)-1,2-dihydropyridine-3-carboxamide], which IC50 is on record?
A: 5 to 10 µM

Q: For `NC(=O)c1cc(-c2ccc(OCC3COCC(C(F)F)O3)cc2)c(C(F)(F)F)[nH]c1=O` (single isomer, unassigned) [Example 349, 5-(4-((6-(difluoromethyl)-1,4-dioxan-2-yl)methoxy)phenyl)-2-oxo-6-(trifluoromethyl)-1,2-dihydropyridine-3-carboxamide], which IC50 is on record?
A: 5 to 10 µM

Q: `NC(=O)c1cc(-c2ccc(OC[C@@H]3COCC4(COC4)O3)cc2)c(C(F)(F)F)[nH]c1=O` [Example 415, (S)-5-(4-((2,5,8-trioxaspiro[3.5]nonan-6-yl)methoxy)phenyl)-2-oxo-6-(trifluoromethyl)-1,2-dihydropyridine-3-carboxamide] was tested. Which IC50 did it give?
A: 5 to 10 µM

Q: How did the IC50 turn out when `NC(=O)c1cc(-c2ccc(OCC3COCC(COC(F)(F)F)O3)cc2)c(C(F)(F)F)[nH]c1=O` (single isomer, unassigned) [Example 372, 2-oxo-5-(4-((6-((trifluoromethoxy)methyl)-1,4-dioxan-2-yl)methoxy)phenyl)-6-(trifluoromethyl)-1,2-dihydropyridine-3-carboxamide] was run?
A: 1 to 5 µM

Same assay, conditions: read-out: RNP_Hubei B

Q: Which IC50 does the source give for `NC(=O)c1cc(-c2ccc(OCc3ccc4cn[nH]c4c3)cc2)c(C(F)(F)F)[nH]c1=O` [Example 85, 5-(4-((1H-indazol-6-yl)methoxy)phenyl)-2-oxo-6-(trifluoromethyl)-1,2-dihydropyridine-3-carboxamide] here?
A: 25 to 50 µM

Q: Which IC50 does the source give for `CC1CN(Cc2ccc(-c3cc(C(N)=O)c(=O)[nH]c3C(F)(F)F)cc2)CCO1` (stereo not drawn) [Example 29, 5-(4-((2-methylmorpholino)methyl)phenyl)-2-oxo-6-(trifluoromethyl)-1,2-dihydropyridine-3-carboxamide] here?
A: 10 to 25 µM

Q: How did the IC50 turn out when `CC(Oc1ccc(-c2cc(C(N)=O)c(=O)[nH]c2C(F)(F)F)cc1)c1cccc(C#N)c1` (single isomer, unassigned) [Example 97, (R or S)-5-(4-(1-(3-cyanophenyl)ethoxy)phenyl)-2-oxo-6-(trifluoromethyl)-1,2-dihydropyridine-3-carboxamide] was run?
A: 25 to 50 µM

Q: Which IC50 does the source give for `N#Cc1cncc(COc2ccc(-c3cc(C(N)=O)c(=O)[nH]c3C(F)(F)F)cc2)c1` [Example 99, 5-(4-((5-cyanopyridin-3-yl)methoxy)phenyl)-2-oxo-6-(trifluoromethyl)-1,2-dihydropyridine-3-carboxamide] here?
A: 25 to 50 µM

Q: With `Cn1cc(COc2ccc(-c3cc(C(N)=O)c(=O)[nH]c3C(F)(F)F)cc2)c(C(F)(F)F)n1` [Example 109, 5-(4-((1-methyl-3-(trifluoromethyl)-1H-pyrazol-4-yl)methoxy)phenyl)-2-oxo-6-(trifluoromethyl)-1,2-dihydropyridine-3-carboxamide] as the compound, how does the IC50 read?
A: 25 to 50 µM

Q: For `NC(=O)c1cc(-c2ccc(CN3CCCOCC3)cc2)c(C(F)(F)F)[nH]c1=O` [Example 34, 5-(4-((1,4-oxazepan-4-yl)methyl)phenyl)-2-oxo-6-(trifluoromethyl)-1,2-dihydropyridine-3-carboxamide], which IC50 is on record?
A: 25 to 50 µM

Q: `CC(Oc1ccc(-c2cc(C(N)=O)c(=O)[nH]c2C(F)(F)F)cc1)c1ccc2nonc2c1` (single isomer, unassigned) [Example 100, (R or S)-5-(4-(1-(benzo[c][1,2,5]oxadiazol-5-yl)ethoxy)phenyl)-2-oxo-6-(trifluoromethyl)-1,2-dihydropyridine-3-carboxamide] was tested. Which IC50 did it give?
A: 5 to 10 µM

Q: How did the IC50 turn out when `CC(O)c1ccc(-c2cc(C(N)=O)c(=O)[nH]c2C(F)(F)F)cc1` (stereo not drawn) [Example 37, 5-(4-(1-hydroxyethyl)phenyl)-2-oxo-6-(trifluoromethyl)-1,2-dihydropyridine-3-carboxamide] was run?
A: 25 to 50 µM

Q: For `CC(Oc1ccc(-c2cc(C(N)=O)c(=O)[nH]c2C(F)(F)F)cc1)c1cccnc1` (single isomer, unassigned) [Example 81, (R or S)-2-oxo-5-(4-(1-(pyridin-3-yl)ethoxy)phenyl)-6-(trifluoromethyl)-1,2-dihydropyridine-3-carboxamide], which IC50 is on record?
A: 10 to 25 µM

Q: How did the IC50 turn out when `NC(=O)c1cc(-c2ccc(OCc3cccc(N)c3)cc2)c(C(F)(F)F)[nH]c1=O` [Example 57, 5-(4-((3-aminobenzyl)oxy)phenyl)-2-oxo-6-(trifluoromethyl)-1,2-dihydropyridine-3-carboxamide] was run?
A: 5 to 10 µM

Q: `NC(=O)c1cc(-c2ccc(OC(F)(F)C3COCCO3)cc2)c(C(F)(F)F)[nH]c1=O` (stereo not drawn) [Example 389, 5-(4-((1,4-dioxan-2-yl)difluoromethoxy)phenyl)-2-oxo-6-(trifluoromethyl)-1,2-dihydropyridine-3-carboxamide] was tested. Which IC50 did it give?
A: 5 to 10 µM

Q: `COC1CCOC(COc2ccc(-c3cc(C(N)=O)c(=O)[nH]c3C(F)(F)F)cc2)C1` (single isomer, unassigned) [Example 202, 5-(4-((4-methoxytetrahydro-2H-pyran-2-yl)methoxy)phenyl)-2-oxo-6-(trifluoromethyl)-1,2-dihydropyridine-3-carboxamide] was tested. Which IC50 did it give?
A: 10 to 25 µM

Q: `CC(C)Oc1ccc(-c2cc(C(N)=O)c(=O)[nH]c2C(F)(F)F)cc1` [Example 17, 5-(4-isopropoxyphenyl)-2-oxo-6-(trifluoromethyl)-1,2-dihydropyridine-3-carboxamide] was tested. Which IC50 did it give?
A: 10 to 25 µM

Q: Which IC50 does the source give for `N#Cc1ccccc1COc1ccc(-c2cc(C(N)=O)c(=O)[nH]c2C(F)(F)F)cc1` [Example 89, 5-(4-((2-cyanobenzyl)oxy)phenyl)-2-oxo-6-(trifluoromethyl)-1,2-dihydropyridine-3-carboxamide] here?
A: 25 to 50 µM

Q: `COc1ccc(COc2ccc(-c3cc(C(N)=O)c(=O)[nH]c3C(F)(F)F)cc2)cc1` [Example 59, 5-(4-((4-methoxybenzyl)oxy)phenyl)-2-oxo-6-(trifluoromethyl)-1,2-dihydropyridine-3-carboxamide] was tested. Which IC50 did it give?
A: 5 to 10 µM

Q: How did the IC50 turn out when `NC(=O)c1cc(-c2ccc(Oc3ccccc3)cc2)c(C(F)(F)F)[nH]c1=O` [Example 6, 2-oxo-5-(4-phenoxyphenyl)-6-(trifluoromethyl)-1,2-dihydropyridine-3-carboxamide] was run?
A: 1 to 5 µM

Source: patent US20240360082A1, “SUBSTITUTED PYRIDONE COMPOUNDS USEFUL TO TREAT ORTH[…]” (priority 2021, published 2024)
